We go through four molecules from paper PMC7541675 (Molecular cancer therapeutics, 2020).

Like-named read-outs stand apart in the source and are kept apart here.

Series [1] relates to patients with advanced refractory solid tumors.
For series [2] the following is noted: in vivo.
In series [3] the test system is ovarian cancer. The settings on record: cited from earlier work.
The conditions of series [4]: 200 mg BID; cited from earlier work.
Series [5] is described as follows: clinical. The settings on record: human, in vivo; for Cmax: Cmax mean (SD); for half-life: t1/2 mean (SD).
Series [6] concerns patients. The settings on record: cited from earlier work.
A short description of series [7]: Pharmacokinetic analyses of paclitaxel and sorafenib in plasma. Conditions: paclitaxel 80 mg/m^2 IV, C1D15 (with sorafenib); for Cmax: human, iv, Cmax mean (SD).
Setting [8] is: recurrent ovarian cancer patients.
Setting [9] is: in combination bevacizumab plus sorafenib, previous phase I studies.
Where [10] appears, read: bevacizumab added to paclitaxel, AURELIA paclitaxel cohort.
[11] abbreviates: paclitaxel without bevacizumab, AURELIA paclitaxel cohort.

As usually defined, the Cmax is the maximum level reached in the sampled fluid or tissue. Usually AUC(0-t) stands for the area under the concentration-time curve up to a stated or last time point. The term half-life denotes how long it takes for the measured level to halve. A lower half-life goes with fast loss. As for `CNC(=O)c1cc(Oc2ccc(NC(=O)Nc3ccc(Cl)c(C(F)(F)F)c3)cc2)ccn1` [sorafenib], in series [1] (human, in vivo), the “Median number of cycles before sorafenib dose reduction to 200 mg QD 5/7” value is given as 3 cycles, the “Patients needing further sorafenib dose reduction to 200 mg QOD” value came out at 21%, the “Patients on study ≥ 4 months who had sorafenib dose reductions” value is 76% and the “Patients requiring further sorafenib dose reduction to 200 mg QD 5/7” value stood at 62%. In addition, the “Recommended phase II dose (RP2D)” value in series [1] (human, in vivo) is on record as 200 mg BID 5/7. Moreover, the “Maximum tolerated dose (MTD)” value in series [1] (sorafenib oral, with bevacizumab 5 mg/kg Q2W and paclitaxel 80 mg/m^2 QW x 3 every 4 weeks) worked out at 200 mg BID 7/7. For the same molecule, the “t1/2 mean (SD)” value in series [2] (human, po) was 6.5 (2.2) h. Moreover, in series [2] (human, po, 200 mg), the “AUC0–8 mean (SD)” value was 14,911 (8,174) ng*hr/mL and the “Cmax mean (SD)” value is on record as 4,539 (2,333) ng/mL. In series [3] (setting [8]), the “ORR, single agent” value is 3%; the “OS, single agent” value is 16 months; the “PFS, single agent” value is 2 months. Moreover, the ORR in series [3] (sorafenib dosed sequentially with topotecan, TRIAS randomized phase II, platinum-resistant ovarian cancer) is given as 31%. In series [3] (sorafenib dosed sequentially with topotecan, TRIAS, p=0.002), the PFS is given as 6.7 months. The OS in series [3] (sorafenib dosed sequentially with topotecan, TRIAS, p=0.017) is given as 17 months. Further, the “AUC0–8, historical values with sorafenib alone” value in series [4] is 6,000–16,000 ng*h/mL. The Cmax in series [5] (po, 200 mg) turned out to be 2.75 µg/mL. This molecule also showed an AUC(0-t) in series [5] (po, 400 mg, AUC0–8 mean (SD)) of 23 µg·h/mL. In series [5] (po, 400 mg), this molecule gave a Cmax of 3.83 µg/mL and a half-life of 7.8 h. The same molecule gave a half-life in series [5] (po) of 4 h. In series [5] (sorafenib AUC0–8 in non-responders), this molecule returned an AUC(0-t) of 17.3 µg·h/mL. The molecule also displayed an AUC(0-t) in series [5] (sorafenib AUC0–8 in responders) of 38.1 µg·h/mL. In series [6] (anti-VEGF monotherapy, all grades), the “HFSR incidence expected with monotherapy” value is on record as 25–50%. The “grade 3 HFSR incidence expected with monotherapy” value in series [6] (anti-VEGF monotherapy) is recorded as 10%. In series [6] (setting [9]), the “maximum tolerated dose (MTD) of sorafenib” value is 200 mg twice daily (BID).

With `CC[C@@]1(O)C(=O)OCc2c1cc1n(c2=O)Cc2cc3c(CN(C)C)c(O)ccc3nc2-1` [topotecan], in series [3] (topotecan alone, TRIAS), the OS is given as 10 months and the PFS is listed as 4.4 months.

In the case of bevacizumab, the PFS in series [3] (bevacizumab added to chemotherapy, AURELIA, p<0.001) is given as 6.7 months. For the same molecule, the OS in series [3] (bevacizumab added to chemotherapy, AURELIA, p=0.174) is given as 16.6 months. In series [3] (setting [10]), the ORR is listed as 53.3%, the OS is 22.4 months and the PFS is recorded as 10.4 months. In series [3] (setting [8]), the “ORR, single agent” value is 20% and the “OS, single agent” value is 17 months. Also, the “HTN incidence expected with monotherapy” value in series [6] (human, in vivo) is on record as 15–30%. Further, the “maximum tolerated dose (MTD) of bevacizumab” value in series [6] (setting [9]) is 5 mg/kg Q2W.

`CC(=O)O[C@H]1C(=O)[C@@]2(C)[C@H]([C@H](OC(=O)c3ccccc3)[C@]3(O)C[C@H](OC(=O)[C@H](O)[C@@H](NC(=O)c4ccccc4)c4ccccc4)C(C)=C1C3(C)C)[C@]1(OC(C)=O)CO[C@@H]1C[C@@H]2O` [paclitaxel]: the “paclitaxel exposure with concurrent sorafenib (drug interaction)” value in series [2] is “no significant differences”. Besides, in series [3] (setting [11]), the ORR is on record as 30.2%, the OS is 13.2 months and the PFS is listed as 3.9 months. The same molecule showed a Cmax in series [7] (cohort 1, sorafenib 200 mg BID 5/7, n=6) of 4.35 µg/mL. In addition, the Cmax in series [7] (cohorts 2/2 expansion, sorafenib 200 mg BID 7/7, n=13) was 3.48 µg/mL. In addition, in series [7] (cohort 3, sorafenib 400 mg BID 5/7, n=2), the “Cmax mean (SD)” value was 3,804 (1306) ng/mL.
